How the values were obtained:
HLA-A2.1 = target: T1, HLA-A2.1 (Homo sapiens, UniProt P04439, D140Y/D185E/D98H/E176V/E277Q/G131W/G231S/I119V/I121R/I166T/I218V/L300P/L318F/N151K/N90K/P208A/P217A/Q86G/Q94H/R138H/R169H/T345S); experiment: class I MHC molecule stabilization assay on T2 cells; format: cell-based; settings: T2 cells incubated 18 hours with peptide, vs medium alone
T1 construct: T2 without exogenous peptide has low expression of HLA-A2 (30%-50%); endogenous in cells; host or cells: T2 (human T-B cell hybrid)

rat sera = experiment: ELISA for peptide epitope analysis of sera of immunized rats; format: in vivo; settings: sera from rats immunized with ECD peptides
Method: One group of rats was immunized with a mixture of extracellular domain (ECD) peptides and one group with a mixture of intracellular domain (ICD) peptides. The final group received adjuvant alone. Peptides were administered at a final concentration of 100 μg each in a total volume of 200 μl. The animals underwent 3 immunizations each 14-16 days apart with either CFA or IFA as adjuvant (Sigma ImmunoChemicals, St. Louis, Mo.). 16 days after the third immunization sera was obtained for assessment of immune response.
96 well Immulon 4 plates (Dynatech Laboratories) were incubated overnight at 4° C. with peptides at a concentration of 10 μg/well diluted in PBS alternating with rows of PBS/1%BSA. After incubation, all wells were blocked with PBS/1%BSA, 100 μl/well for 4 hours at room temperature. The plate was washed with PBS/0.5% Tween. After washing, the plate was incubated with rat sera at the following dilutions: 1:50 and 1:100. The sera was diluted in PBS/1%BSA/1% FBS/25 μg/ml mouse IgG/0.01% NaN3 and then serially into PBS/1%BSA. […] Color reaction was read at an optical density of 640 nm until the reading on the most reactive well reached 0.3 OD. The reaction was stopped with 1N HCl and the optical density was read at 450 nm. The OD of each serum dilution was calculated as the OD of the peptide coated wells minus the OD of the PBS/1%BSA coated wells. […]

[1] = system: peripheral blood mononuclear cells (PBMC); experiment: standard proliferation assay of PBMC (3H-thymidine), CD4+ T cell response; format: cell-based, human
PBL = experiment: low frequency event screening assay for CD4+ T cell precursors in PBL of normal individuals; format: cell-based, human
[2] = breast cancer patient A, HER-2/neu status Negative, tetanus toxoid 5 μg/ml, p185 5 μg/ml, peptides 50 μg/ml, 4 days
[3] = breast cancer patient B, HER-2/neu status Positive, tetanus toxoid 5 μg/ml, p185 5 μg/ml, peptides 50 μg/ml, 4 days
[4] = breast cancer patient C, HER-2/neu status Positive, tetanus toxoid 5 μg/ml, p185 5 μg/ml, peptides 50 μg/ml, 4 days
[5] = breast cancer patient D, HER-2/neu status Positive, tetanus toxoid 5 μg/ml, p185 5 μg/ml, peptides 50 μg/ml, 4 days

Row | Compound | % Increase of class I stabilization on T2 (HLA-A2.1) | antibody responses to individual peptides (rat sera) | Stimulation Index (S.I.) [1, 2] | Stimulation Index (S.I.) [1, 3] | Stimulation Index (S.I.) [1, 4] | Stimulation Index (S.I.) [1, 5] | Stimulation Index (S.I.) ([1]; normal individual 1) | Stimulation Index (S.I.) ([1]; normal individual 2) | Stimulation Index (S.I.) ([1]; normal individual 3) | Stimulation Index (S.I.) ([1]; normal individual 4) | Stimulation Index (S.I.) ([1]; normal individual 5) | CD4+ T cell response in low frequency screening (PBL; one normal individual (FIG. 2)) | individuals with a proliferative response (PBL; seven normal subjects (4 males, 3 females))
1 | CC(C)C[C@H](NC(=O)[C@@H](N)Cc1c[nH]cn1)C(=O)N[C@@H](Cc1ccc(O)cc1)C(=O)N[C@@H](CCC(N)=O)C(=O)NCC(=O)N[C@@H](CS)C(=O)N[C@@H](CCC(N)=O)C(=O)N[C@H](C(=O)N[C@H](C(=O)O)C(C)C)C(C)C [p48-56] | 20% | – | – | – | – | – | – | – | – | – | – | – | –
2 | CC(C)C[C@H](NC(=O)[C@H](CCC(N)=O)NC(=O)[C@@H](NC(=O)[C@@H](NC(=O)[C@H](CO)NC(=O)[C@@H](NC(=O)[C@H](CC(C)C)NC(=O)[C@@H](N)CS)[C@@H](C)O)[C@@H](C)O)C(C)C)C(=O)N[C@H](C(=O)O)C(C)C [p789-797] | 20% | – | – | – | – | – | – | – | – | – | – | – | –
3 | TQRCEKCSKPCARVCYGL [p328-345] | – | substantial responses | – | – | – | – | – | – | – | – | – | – | –
4 | Tetanus Toxoid [reference compound] | – | – | 52 | 36 | 7 | 10 | 6 | 7 | 7 | 10 | 11 | – | –
5 | p185: protein product of the HER-2/neu oncogene, partially purified whole protein from SKBR3 cell membranes | – | – | 13 | < 2 | 4 | 4 | 2 | < 2 | < 2 | 2 | 2 | Positive responses | 57%

— US5846538A, “Immune reactivity to HER-2/neu protein for diagnosis and treatment of malignancies in which the her-2/neu oncogene is associated” (University of Washington, priority 1995, dated 1998)
